Test results reported in ChEMBL document CHEMBL3727356, “Therapeutic compounds and compositions” (2014).

Assays:
Pyruvate kinase PKLR [1] = biological target: Pyruvate kinase PKLR (Homo sapiens, UniProt P30613, R532W); experiment: Activation of PKR R532W mutant (unknown origin) incubated for 60 mins in presence of ADP, PEP and NADH by Spectraax microplate reader based assay
Pyruvate kinase PKLR [2] = biological target: T1, Pyruvate kinase PKLR (Homo sapiens, UniProt P30613); experiment: Activation of wild type PKR (unknown origin) incubated for 60 mins in presence of ADP, PEP and NADH by Spectraax microplate reader based assay
T1 sequence (P30613 whole entry): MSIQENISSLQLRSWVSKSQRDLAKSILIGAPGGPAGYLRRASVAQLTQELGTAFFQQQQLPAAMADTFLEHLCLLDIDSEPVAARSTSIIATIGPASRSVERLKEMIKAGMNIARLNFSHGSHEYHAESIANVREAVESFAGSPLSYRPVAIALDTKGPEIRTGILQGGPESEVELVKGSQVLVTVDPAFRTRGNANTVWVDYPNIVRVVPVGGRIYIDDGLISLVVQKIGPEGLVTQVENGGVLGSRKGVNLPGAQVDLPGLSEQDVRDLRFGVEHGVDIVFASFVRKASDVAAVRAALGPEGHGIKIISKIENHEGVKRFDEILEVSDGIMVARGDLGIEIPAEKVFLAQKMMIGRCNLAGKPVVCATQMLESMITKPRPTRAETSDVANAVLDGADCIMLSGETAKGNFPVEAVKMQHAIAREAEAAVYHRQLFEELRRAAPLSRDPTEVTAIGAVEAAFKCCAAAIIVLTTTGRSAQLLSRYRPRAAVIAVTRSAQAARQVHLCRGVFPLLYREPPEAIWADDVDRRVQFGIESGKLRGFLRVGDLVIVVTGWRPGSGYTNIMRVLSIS

Pyruvate kinase PKLR [3] = biological target: T1, Pyruvate kinase PKLR; experiment: Activation of wild type PKR (unknown origin) by cell based assay

Measured: AC50

Pyruvate kinase PKLR (Homo sapiens, UniProt P30613, R532W), sequence (P30613 whole entry R532W): as the sequence (P30613 whole entry) above, with R532W counted along it

O=C(c1ccc(NS(=O)(=O)c2cccc3cccnc23)cc1)N1CCC(O)(Cc2cccc(F)n2)CC1
< 100 nM: all assays above

O=C(c1ccc(NS(=O)(=O)c2cccc3scnc23)cc1)N1CCC(O)(c2ccccc2Cl)CC1
< 100 nM: all assays above

CS(=O)(=O)c1ccccc1C1(O)CCN(C(=O)c2ccc(NS(=O)(=O)c3cccc4cccnc34)cc2)CC1
< 100 nM: all assays above

O=C(c1ccc(NS(=O)(=O)c2cccc3cccnc23)cc1)N1CCC(O)(c2cccc(F)c2)CC1
< 100 nM: all assays above

Cc1cccnc1C1(O)CCN(C(=O)c2ccc(NS(=O)(=O)c3cccc4cccnc34)cc2)CC1
< 100 nM: all assays above

O=C(c1ccc(NS(=O)(=O)c2cccc3cccnc23)cc1)N1CCC(O)(c2ccc(F)cc2)CC1
< 100 nM: all assays above

CC(C)C1(O)CCN(C(=O)c2ccc(NS(=O)(=O)c3cccc4cccnc34)cc2)CC1
< 100 nM: all assays above

O=C(c1ccc(NS(=O)(=O)c2cccc3cccnc23)cc1)N1CCC(O)(c2cc(F)ccc2Cl)CC1
< 100 nM: all assays above

CCCC1(O)CCN(C(=O)c2ccc(NS(=O)(=O)c3cccc4cccnc34)cc2)CC1
< 100 nM: all assays above

Cc1nc2c(S(=O)(=O)Nc3ccc(C(=O)N4CCC(O)(c5ccccc5Cl)CC4)cc3)cccc2o1
< 100 nM: all assays above

Cc1cc(C(=O)N2CCC(O)(c3cccc(F)c3F)CC2)ccc1NS(=O)(=O)c1cccc2nccnc12
< 100 nM: all assays above

Cc1cc(NS(=O)(=O)c2cccc3cccnc23)ccc1C(=O)N1CCC(O)(c2ccccc2Cl)CC1
< 100 nM: all assays above

O=C(c1ccc(NS(=O)(=O)c2cccc3cccnc23)c(F)c1)N1CCC(O)(Cc2ccccc2)CC1
< 100 nM: all assays above

CC(F)(F)CCC1(O)CCN(C(=O)c2ccc(NS(=O)(=O)c3cccc4nc(N)cnc34)cc2)CC1
< 100 nM: all assays above

O=C(c1ccc(NS(=O)(=O)c2cccc3scnc23)cc1)N1CCC(O)(c2sncc2Cl)CC1
< 100 nM: all assays above

O=C(c1ccc(NS(=O)(=O)c2cccc3c(O)ncnc23)cc1)N1CCC(O)(c2cccc(F)c2F)CC1
< 100 nM: all assays above

O=C(c1ccc(NS(=O)(=O)c2cccc3nccnc23)cc1)N1CCC(O)(c2ccccc2Cl)CC1
< 100 nM: all assays above

O=C(c1ccc(NS(=O)(=O)c2cccc3cccnc23)cc1)N1CCC(O)(c2cccnc2C(F)(F)F)CC1
< 100 nM: all assays above

O=C(c1ccc(NS(=O)(=O)c2cccc3scnc23)cc1)N1CCC(O)(CCC=C(F)F)CC1
< 100 nM: all assays above

O=C(c1ccc(NS(=O)(=O)c2cccc3cccnc23)cc1Cl)N1CCC(O)(c2ccccc2Cl)CC1
< 100 nM: all assays above

O=C(c1ccc(NS(=O)(=O)c2cccc3cccnc23)cc1)N1CCC(O)(c2ccncc2)CC1
< 100 nM: all assays above

O=C(c1ccc(NS(=O)(=O)c2cccc3cccnc23)cc1)N1CCC(O)(Cc2cccnc2F)CC1
< 100 nM: all assays above

CC(C)CC1(O)CCN(C(=O)c2ccc(NS(=O)(=O)c3cccc4c3OCO4)cc2)CC1
< 100 nM: all assays above

Cc1noc(C)c1CC1(O)CCN(C(=O)c2ccc(NS(=O)(=O)c3cccc4nccnc34)cc2)CC1
< 100 nM: all assays above

O=C(c1ccc(NS(=O)(=O)c2cccc3scnc23)cc1)N1CCC(O)(CC2CCC2)CC1
< 100 nM: all assays above

O=C(c1ccc(NS(=O)(=O)c2cccc3cccnc23)cc1)N1CCC(CO)(Cc2ccccc2)CC1
< 100 nM: all assays above

O=C(c1ccc(NS(=O)(=O)c2cccc3cccnc23)cc1)N1CCC(O)(c2cccc(C(F)(F)F)c2)CC1
< 100 nM: all assays above

O=C(c1ccc(NS(=O)(=O)c2cccc3cc(F)cnc23)cc1)N1CCC(O)(c2ccccc2)CC1
< 100 nM: all assays above

O=C(c1ccc(NS(=O)(=O)c2cccc3cccnc23)cc1F)N1CCC(O)(c2ccccc2Cl)CC1
< 100 nM: all assays above

Cn1nccc1CC1(O)CCN(C(=O)c2ccc(NS(=O)(=O)c3cccc4nccnc34)cc2)CC1
< 100 nM: all assays above

O=C(c1ccc(NS(=O)(=O)c2cccc3cccnc23)cc1)N1CCC(O)(c2ccccc2F)CC1
< 100 nM: all assays above

N#Cc1cc(NS(=O)(=O)c2cccc3cccnc23)ccc1C(=O)N1CCC(O)(c2ccccc2Cl)CC1
< 100 nM: all assays above

O=C(c1ccc(NS(=O)(=O)c2cccc3cccnc23)cc1)N1CCC(O)(CCC(F)F)CC1
< 100 nM: all assays above

O=C(c1ccc(NS(=O)(=O)c2cccc3cccnc23)cc1)N1CCC(O)(c2ccncc2Cl)CC1
< 100 nM: all assays above

O=C(c1ccc(NS(=O)(=O)c2cccc3scnc23)cc1)N1CCC(O)(CCCC(F)(F)F)CC1
< 100 nM: all assays above
